Activity calls are given as the source filed them. No cut-off for these calls is given here.
Target: T1, DNA topoisomerase 1 (Homo sapiens) (UniProt P11387)
T1 sequence (whole entry): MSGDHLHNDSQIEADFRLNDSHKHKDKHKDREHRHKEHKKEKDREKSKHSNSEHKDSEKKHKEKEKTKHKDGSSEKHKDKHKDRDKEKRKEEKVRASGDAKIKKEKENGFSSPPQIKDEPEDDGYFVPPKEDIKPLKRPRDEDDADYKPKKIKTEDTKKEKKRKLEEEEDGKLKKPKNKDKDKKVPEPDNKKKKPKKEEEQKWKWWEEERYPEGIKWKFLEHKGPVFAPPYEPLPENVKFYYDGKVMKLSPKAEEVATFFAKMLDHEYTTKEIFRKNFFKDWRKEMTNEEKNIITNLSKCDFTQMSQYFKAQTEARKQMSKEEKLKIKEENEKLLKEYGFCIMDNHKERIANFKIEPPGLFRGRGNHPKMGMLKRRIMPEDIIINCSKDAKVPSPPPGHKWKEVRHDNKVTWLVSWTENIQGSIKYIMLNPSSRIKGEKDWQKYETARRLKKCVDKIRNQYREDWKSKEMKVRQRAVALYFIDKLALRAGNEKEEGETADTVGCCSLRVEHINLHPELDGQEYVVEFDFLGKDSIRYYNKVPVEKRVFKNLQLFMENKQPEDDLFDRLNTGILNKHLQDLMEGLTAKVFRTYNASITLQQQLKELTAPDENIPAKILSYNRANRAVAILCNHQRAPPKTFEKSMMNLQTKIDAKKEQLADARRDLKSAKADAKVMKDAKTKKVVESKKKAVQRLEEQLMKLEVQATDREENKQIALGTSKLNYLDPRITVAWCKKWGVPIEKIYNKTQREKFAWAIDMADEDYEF
Experiment: Inhibitory activity against DNA-Topoisomerase I

inhibition	Structure (SMILES)
inactive	Nc1ccc2c3c(n(CCCCl)c(=O)c2c1)-c1cc2c(cc1C3=O)OCO2
inactive	O=C1c2cc3c(cc2-c2c1c1ccccc1c(=O)n2CCCCl)OCO3

Source: ChEMBL document CHEMBL1143631, “On the binding of indeno[1,2-c]isoquinolines in the DNA-topoisomerase I cleavage complex” (J Med Chem, 2005)
